The values below come from paper PMC6963856, “Increases in Hydrophilicity and Charge on the Polar Face of Alyteserin 1c Helix Change its Selectivity towards Gram-Positive Bacteria” (Antibiotics, 2019).

One data set deals with S. aureus ATCC25923. It is filed as cell-based, Staphylococcus aureus. The protocol:
(§1) Antimicrobial assays were performed according to the Clinical and Laboratory Standards Institute, CLSI [45] with slight modifications. A bacterial culture in Mueller Hinton broth in exponential phase was diluted in Mueller Hinton broth until reaching an OD625 of 0.1 (approximately 1 × 10^8 CFU/mL). Then, this culture was diluted once more by a factor of 1:200. Subsequently, 90 µL of bacterial culture was incubated with 10 µL of peptide to reach a final inoculum of approximately 5 × 10^5 CFU/mL. The incubation time was 18–20 h in sterile 96-well plates at 37 °C. The peptides were applied at different serial dilutions (diluted in half) from 250 μM to 0.97 μM. As a negative control, phosphate-buffered saline (PBS; 138 mM NaCl, 3 mM KCl, 1.5 mM NaH2PO4, 8.1 mM Na2HPO4, pH 7.4) was used. After incubation, bacterial growth was visualized to obtain the minimum inhibitory concentration (MIC).

The subject of data set [1] is L. monocytogenes ATCCbaa751. It is filed as cell-based. How it is done:
as §1

The next data set relates to P. aeruginosa ATCC9027. It is filed as cell-based. The protocol: as §1
The next data set deals with E. coli ATCC25922. It is filed as cell-based, Escherichia coli. How it is done:
as §1

The subject of another data set is human erythrocytes. As to conditions: cited from earlier work. The source says: A peptide of 23 amino acid residues with a net charge of +2, Alyerserin-1c (WT), was isolated for the first time from the cutaneous secretions of the Alytes obstetricans toad. […] Furthermore, the three-dimensional structure of Alyteserin-1c was characterized as an extended α-helix between Leu2 and Val21 residues. In a recent study by Aragón-Muriel et al., it was reported that the Alyteserin-1 ...

Data set [2] deals with S. aureus ATCC29213 (MSSA, ampicillin-resistant). It is filed as cell-based, Staphylococcus aureus. The protocol:
as §1

Data set [3] relates to S. aureus ATCC43300 (MRSA). It is filed as cell-based, Staphylococcus aureus. The protocol: as §1
Another data set has as its system B. cereus ATCC11778. It is filed as cell-based. The protocol: as §1
A further data set relates to S. typhimurium ATCC14028. It is filed as cell-based. How it is done: as §1

Where no end group is shown, it is not given here.

“GLKEIFKAGLGSLVKGIAAHVAS-NH2 [WT, Alyteserin-1c, reference compound]”: the “MIC S. aureus ATCC25923” value in the data set on S. aureus ATCC25923 was determined as 250 µM. Moreover, the “MIC L. monocytogenes ATCCbaa751” value in data set [1] is recorded as 125 µM. In addition, the “MIC P. aeruginosa ATCC9027” value in the data set on P. aeruginosa ATCC9027 was 31.3 µM. Besides, the “MIC E. coli ATCC25922” value with E. coli ATCC25922 stood at 15.2 µM. Besides, the HC50 human erythrocytes with human erythrocytes is on record as 220 µM.

In the case of GLKRIFKSGLGKLVKGISAHVAS-NH2 [ΔM], in the data set with S. aureus ATCC25923, the “MIC S. aureus ATCC25923” value was found to be 62.5 µM. Further, the “MIC S. aureus ATCC29213” value in data set [2] came to 250 µM. Further, the “MIC S. aureus ATCC43300” value in [3] was 250 µM. In addition, the “MIC B. cereus ATCC11778” value in the data set with B. cereus ATCC11778 came to 125 µM. Further, the “MIC L. monocytogenes ATCCbaa751” value in data set [1] amounted to 62.5 µM. Moreover, in the data set with S. typhimurium ATCC14028, the “MIC S. typhimurium ATCC14028” value turned out to be 125 µM. For the same substance, the “MIC E. coli ATCC25922” value in the data set with E. coli ATCC25922 amounted to 62.5 µM.
